Data published in patent US20120121591A1 (priority 2009, published 2012).
Like-named read-outs stand apart in the source and are kept apart here. Positions of bridges follow the written chain, without caps; N, C: chain ends. Residues, ends and D or L forms follow the SMILES beside them.

Experiments:
Format in all cases: cell-based
[1] = tested on: IFN-g secretion from T cells in human whole blood
hKv1.3 = hKv1.3 (Homo sapiens, UniProt P22001); test: cell-based; conditions: Kv1.3 (IWQ) IC50 (nM, Avg)
hKv1.3, sequence (P22001 whole entry): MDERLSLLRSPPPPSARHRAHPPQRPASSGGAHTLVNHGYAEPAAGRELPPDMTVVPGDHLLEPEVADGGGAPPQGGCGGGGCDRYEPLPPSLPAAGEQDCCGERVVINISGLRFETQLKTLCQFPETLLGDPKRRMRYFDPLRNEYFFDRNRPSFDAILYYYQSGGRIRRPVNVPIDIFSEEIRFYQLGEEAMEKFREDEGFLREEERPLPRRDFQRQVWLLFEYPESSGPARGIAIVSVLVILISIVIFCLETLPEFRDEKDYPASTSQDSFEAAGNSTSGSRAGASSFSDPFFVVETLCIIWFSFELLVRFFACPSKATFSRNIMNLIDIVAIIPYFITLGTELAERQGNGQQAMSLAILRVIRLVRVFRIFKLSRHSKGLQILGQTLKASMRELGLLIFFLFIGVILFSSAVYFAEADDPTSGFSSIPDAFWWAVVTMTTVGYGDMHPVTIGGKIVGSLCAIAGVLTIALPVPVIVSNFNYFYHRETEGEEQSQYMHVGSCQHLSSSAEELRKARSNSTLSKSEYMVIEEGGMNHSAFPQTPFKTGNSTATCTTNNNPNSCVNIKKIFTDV

[2] = tested on: IL-2 secretion from T cells in human whole blood; conditions: read-out: WB (IL-2) IC50 (nM, Avg)
[3] = read-out: WB (IFNg) IC50 (nM, Avg)

| SMILES | IC50 [1, 3] | IC50 (hKv1.3) | IC50 [2] | IC50 ([1]; read-out: WB (IFNg) IC5- (nM, Avg)) |
| --- | --- | --- | --- | --- |
| CCCC[C@@H]1NC(=O)[C@H](CO)NC(=O)[C@H](Cc2c[nH]cn2)NC(=O)[C@H](CCCCN)NC(=O)[C@@H]2CSSC[C@@H]3NC(=O)[C@H]([C@@H](C)O)NC(=O)[C@H](CCCCN)NC(=O)[C@H](CCCNC(=N)N)NC(=O)[C@H](CSSC[C@H](NC(=O)[C@H](CCCNC(=N)N)NC(=O)[C@H](CO)NC(=O)[C@H](CCCCN)NC(=O)[C@@H]4CCCN4C(=O)[C@H]([C@@H](C)CC)NC(=O)[C@H]([C@@H](C)O)NC(=O)[C@H](CC(=O)O)NC(=O)[C@H]([C@@H](C)CC)NC(=O)[C@@H](NC(=O)[C@H](CO)NC(=O)[C@@H](N)CCCNC(=N)N)CSSC[C@@H](C(=O)O)NC(=O)[C@H]([C@@H](C)O)NC(=O)CNC3=O)C(=O)N[C@@H]([C@@H](C)O)C(=O)N[C@@H](C)C(=O)N[C@@H](Cc3ccccc3)C(=O)N[C@@H](CCCCN)C(=O)N2)NC(=O)[C@H](Cc2ccccc2)NC(=O)[C@H](CO)NC(=O)[C@H](CC(C)C)NC(=O)[C@H](CCCNC(=N)N)NC(=O)[C@H](Cc2ccc(O)cc2)NC(=O)[C@H](CCCCN)NC1=O [[Lys16,N1e21]ShK] | 0.848 nM | 0.13 nM | 0.249 nM |  |
| CC[C@H](C)[C@@H]1NC(=O)[C@@H](NC(=O)[C@H](CO)NC(=O)[C@@H](N)CCCNC(=N)N)CSSC[C@@H](C(=O)O)NC(=O)[C@H]([C@@H](C)O)NC(=O)CNC(=O)[C@@H]2CSSC[C@@H]3NC(=O)[C@H](CCC(N)=O)NC(=O)[C@H](Cc4ccccc4)NC(=O)[C@H](C)NC(=O)[C@H]([C@@H](C)O)NC(=O)[C@H](CSSC[C@H](NC(=O)[C@H](Cc4ccccc4)NC(=O)[C@H](CCCCN)NC(=O)[C@H](CC(C)C)NC(=O)[C@H](CCCNC(=N)N)NC(=O)[C@H](Cc4ccc(O)cc4)NC(=O)[C@H](CCCCN)NC(=O)[C@H](CCSC)NC(=O)[C@H](CO)NC(=O)[C@H](Cc4c[nH]cn4)NC(=O)[C@H](CCCCN)NC3=O)C(=O)N[C@@H](CCCNC(=N)N)C(=O)N[C@@H](CCCCN)C(=O)N[C@@H]([C@@H](C)O)C(=O)N2)NC(=O)[C@H](CCCNC(=N)N)NC(=O)[C@H](CO)NC(=O)[C@H](CCCCN)NC(=O)[C@@H]2CCCN2C(=O)[C@H]([C@@H](C)CC)NC(=O)[C@H]([C@@H](C)O)NC(=O)[C@H](CC(=O)O)NC1=O [[Lys26]ShK] | 0.495 nM | 0.115 nM | 0.273 nM |  |
| CCCC[C@@H]1NC(=O)[C@H](CO)NC(=O)[C@H](Cc2c[nH]cn2)NC(=O)[C@H](CCCCN)NC(=O)[C@@H]2CSSC[C@@H]3NC(=O)[C@H]([C@@H](C)O)NC(=O)[C@H](C)NC(=O)[C@H](CCCCN)NC(=O)[C@H](CSSC[C@H](NC(=O)[C@H](CCCNC(=N)N)NC(=O)[C@H](CO)NC(=O)[C@H](CCCCN)NC(=O)[C@@H]4CCCN4C(=O)[C@H]([C@@H](C)CC)NC(=O)[C@H]([C@@H](C)O)NC(=O)[C@H](CC(=O)O)NC(=O)[C@H]([C@@H](C)CC)NC(=O)[C@@H](NC(=O)[C@H](CO)NC(=O)[C@@H](N)CCCNC(=N)N)CSSC[C@@H](C(N)=O)NC(=O)[C@H]([C@@H](C)O)NC(=O)CNC3=O)C(=O)N[C@@H]([C@@H](C)O)C(=O)N[C@@H](C)C(=O)N[C@@H](Cc3ccccc3)C(=O)N[C@@H](CCCCN)C(=O)N2)NC(=O)[C@H](Cc2ccccc2)NC(=O)[C@H](CO)NC(=O)[C@H](CC(C)C)NC(=O)[C@H](CCCNC(=N)N)NC(=O)[C@H](Cc2ccc(O)cc2)NC(=O)[C@H](CCCCN)NC1=O [[Lys16, 29; Ala30,Nle21]ShK-amide] | 1.7 nM | 0.057 nM | 0.791 nM |  |
| CC[C@H](C)[C@@H]1NC(=O)[C@H]([C@@H](C)O)NC(=O)[C@H](CC(=O)O)NC(=O)[C@H](CCC(=O)O)NC(=O)[C@@H](NC(=O)[C@H](CO)NC(=O)[C@@H](N)CCCNC(=N)N)CSSC[C@@H](C(N)=O)NC(=O)[C@H]([C@@H](C)O)NC(=O)CNC(=O)[C@@H]2CSSC[C@@H]3NC(=O)[C@H](CCCCN)NC(=O)[C@H](Cc4ccccc4)NC(=O)[C@H](C)NC(=O)[C@H]([C@@H](C)O)NC(=O)[C@H](CSSC[C@H](NC(=O)[C@H](Cc4ccccc4)NC(=O)[C@H](CO)NC(=O)[C@H](CC(C)C)NC(=O)[C@H](CCCNC(=N)N)NC(=O)[C@H](Cc4ccc(O)cc4)NC(=O)[C@H](CCCCN)NC(=O)[C@H](CCSC)NC(=O)[C@H](CO)NC(=O)[C@H](Cc4c[nH]cn4)NC(=O)[C@H](CCCNC(=N)N)NC3=O)C(=O)N[C@@H](CCCCN)C(=O)N[C@@H](CCCNC(=N)N)C(=O)N[C@@H]([C@@H](C)O)C(=O)N2)NC(=O)[C@H](CCCNC(=N)N)NC(=O)[C@H](CCC(=O)O)NC(=O)[C@H](CCCCN)NC(=O)[C@@H]2CCCN2C1=O [[Glu4,10; Lys16,29;Arg18,30]ShK-amide] (H-RSCEDTIPKERCTAFKCRHSMKYRLSFCKRTCGTC-NH2; disulfide 3-35, 12-28, 17-32) | 0.217 nM | 0.064 nM | 0.114 nM |  |
| CC[C@H](C)[C@@H]1NC(=O)[C@@H](NC(=O)[C@H](CO)NC(=O)[C@@H](N)CCCNC(=N)N)CSSC[C@@H](C(N)=O)NC(=O)[C@H]([C@@H](C)O)NC(=O)CNC(=O)[C@@H]2CSSC[C@@H]3NC(=O)[C@H](CCCCN)NC(=O)[C@H](Cc4ccccc4)NC(=O)[C@H](C)NC(=O)[C@H]([C@@H](C)O)NC(=O)[C@H](CSSC[C@H](NC(=O)[C@H](Cc4ccccc4)NC(=O)[C@H](CO)NC(=O)[C@H](CC(C)C)NC(=O)[C@H](CCCNC(=N)N)NC(=O)[C@H](Cc4ccc(O)cc4)NC(=O)[C@H](CCCCN)NC(=O)[C@H](C(C)C)NC(=O)[C@H](CO)NC(=O)[C@H](Cc4c[nH]cn4)NC(=O)[C@H](CCCCN)NC3=O)C(=O)N[C@@H](CCCNC(=N)N)C(=O)N[C@@H](CCCCN)C(=O)N[C@@H]([C@@H](C)O)C(=O)N2)NC(=O)[C@H](CCCNC(=N)N)NC(=O)[C@H](CO)NC(=O)[C@H](CCCCN)NC(=O)[C@@H]2CCCN2C(=O)[C@H]([C@@H](C)CC)NC(=O)[C@H]([C@@H](C)O)NC(=O)[C@H](CC(=O)O)NC1=O [[Lys16, VaI21]ShK-amide] | 6.65 nM | 0.344 nM | 4.8 nM |  |
| CC[C@H](C)[C@@H]1NC(=O)[C@@H](NC(=O)[C@H](CO)NC(=O)[C@@H](N)CCCNC(=N)N)CSSC[C@@H](C(=O)O)NC(=O)[C@H]([C@@H](C)O)NC(=O)CNC(=O)[C@@H]2CSSC[C@@H]3NC(=O)[C@H](CCC(N)=O)NC(=O)[C@H](Cc4ccccc4)NC(=O)[C@H](C)NC(=O)[C@H]([C@@H](C)O)NC(=O)[C@H](CSSC[C@H](NC(=O)[C@H](Cc4ccccc4)NC(=O)[C@H](CO)NC(=O)[C@H](CC(C)C)NC(=O)[C@H](CCCNC(=N)N)NC(=O)[C@H](Cc4ccc(O)cc4)NC(=O)[C@H](CCCCN)NC(=O)[C@H](CCSC)NC(=O)[C@H](CO)NC(=O)[C@H](Cc4c[nH]cn4)NC(=O)[C@H](CCCCN)NC3=O)C(=O)N[C@@H](CCCNC(=N)N)C(=O)N[C@@H](CCCCN)C(=O)N[C@@H]([C@@H](C)O)C(=O)N2)NC(=O)[C@H](CCCNC(=N)N)NC(=O)[C@H](CO)NC(=O)[C@H](CCCCN)NC(=O)[C@@H]2CCCN2C(=O)[C@H]([C@@H](C)CC)NC(=O)[C@H]([C@@H](C)O)NC(=O)[C@H](CCC(=O)O)NC1=O [[Glu5]ShK] |  | 3.3 nM | 16.9 nM | 24.6 nM |
